27 compounds from patent publication US20100204224A1, “AZACYCLIC COMPOUNDS AS INHIBITORS OF SENSORY NEURONE SPECIFIC SODIUM CHANNELS” (priority 2005, published 2010) can be followed below.

Counter-ions that a name gives are not always drawn. Some results are limits rather than exact numbers.

The target of the first assay is T1, human Nav1.8 (hNav1.8) ion channel (Homo sapiens, UniProt Q9Y5Y9).
T1 construct: expressed in transfected cells
T1 sequence (Q9Y5Y9 whole entry): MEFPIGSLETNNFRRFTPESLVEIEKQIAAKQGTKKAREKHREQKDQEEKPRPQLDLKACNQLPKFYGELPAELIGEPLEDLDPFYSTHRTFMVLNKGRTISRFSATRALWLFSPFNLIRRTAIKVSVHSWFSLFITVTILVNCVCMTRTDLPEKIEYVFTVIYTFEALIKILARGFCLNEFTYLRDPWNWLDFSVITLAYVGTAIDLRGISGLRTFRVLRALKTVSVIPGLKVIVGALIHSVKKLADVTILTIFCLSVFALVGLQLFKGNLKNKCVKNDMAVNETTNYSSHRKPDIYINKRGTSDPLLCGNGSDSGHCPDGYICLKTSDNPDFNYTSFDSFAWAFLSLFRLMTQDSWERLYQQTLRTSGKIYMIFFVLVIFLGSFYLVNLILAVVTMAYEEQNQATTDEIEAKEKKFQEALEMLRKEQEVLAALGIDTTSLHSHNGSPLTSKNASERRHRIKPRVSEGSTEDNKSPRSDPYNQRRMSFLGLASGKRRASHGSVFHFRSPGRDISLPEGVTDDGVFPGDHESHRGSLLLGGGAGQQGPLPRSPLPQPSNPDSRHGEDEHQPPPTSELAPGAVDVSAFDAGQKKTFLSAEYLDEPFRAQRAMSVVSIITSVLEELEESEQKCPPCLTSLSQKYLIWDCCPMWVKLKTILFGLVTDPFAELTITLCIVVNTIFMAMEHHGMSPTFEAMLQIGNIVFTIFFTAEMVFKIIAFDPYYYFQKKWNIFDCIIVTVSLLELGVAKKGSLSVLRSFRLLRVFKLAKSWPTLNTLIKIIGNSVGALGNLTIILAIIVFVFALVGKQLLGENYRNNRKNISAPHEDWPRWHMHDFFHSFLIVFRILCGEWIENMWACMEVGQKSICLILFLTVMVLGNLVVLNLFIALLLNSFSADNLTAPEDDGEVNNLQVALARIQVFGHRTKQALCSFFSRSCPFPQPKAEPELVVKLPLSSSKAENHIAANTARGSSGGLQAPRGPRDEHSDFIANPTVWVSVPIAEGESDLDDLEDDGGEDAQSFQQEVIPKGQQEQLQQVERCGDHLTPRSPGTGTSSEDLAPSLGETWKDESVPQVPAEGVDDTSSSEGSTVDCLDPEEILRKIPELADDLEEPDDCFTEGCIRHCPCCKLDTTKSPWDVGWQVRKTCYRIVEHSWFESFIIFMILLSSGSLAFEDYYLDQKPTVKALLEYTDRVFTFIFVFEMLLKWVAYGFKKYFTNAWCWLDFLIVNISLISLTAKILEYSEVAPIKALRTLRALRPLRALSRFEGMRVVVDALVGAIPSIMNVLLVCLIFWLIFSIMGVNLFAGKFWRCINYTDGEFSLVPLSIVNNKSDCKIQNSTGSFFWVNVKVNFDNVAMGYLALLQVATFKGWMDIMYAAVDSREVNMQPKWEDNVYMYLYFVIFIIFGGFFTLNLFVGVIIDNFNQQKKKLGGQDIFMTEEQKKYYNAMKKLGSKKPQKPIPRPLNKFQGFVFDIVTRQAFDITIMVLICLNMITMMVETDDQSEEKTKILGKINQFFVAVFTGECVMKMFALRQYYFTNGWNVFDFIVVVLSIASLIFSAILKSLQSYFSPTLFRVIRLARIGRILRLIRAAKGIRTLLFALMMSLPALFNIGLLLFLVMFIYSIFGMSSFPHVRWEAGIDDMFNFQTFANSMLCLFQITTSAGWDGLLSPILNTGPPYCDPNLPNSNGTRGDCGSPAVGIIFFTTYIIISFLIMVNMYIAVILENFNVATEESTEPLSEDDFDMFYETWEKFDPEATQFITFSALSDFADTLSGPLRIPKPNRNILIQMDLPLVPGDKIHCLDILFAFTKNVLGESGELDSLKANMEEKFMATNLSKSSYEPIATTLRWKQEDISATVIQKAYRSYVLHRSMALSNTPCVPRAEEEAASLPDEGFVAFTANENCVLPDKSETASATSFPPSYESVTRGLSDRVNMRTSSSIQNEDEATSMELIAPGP
Briefly: Inhibition of human Nav1.8 stably expressed in SH-SY-5Y cells (membrane potential dye fluorescence assay). It counts as cell-based. As to conditions: SH-SY-5Y hNav1.8 cells; FLIPR membrane potential dye; 10 μM pyrethroid, 250 nM TTX; test concentration range 100 μM-0.05 μM; read-out: hNav1.8 IC50. As to the method:
Inhibition of Human Nav1.8 stably expressed in SH-SY-5Y Cells
A SH-SY-5Y neuroblastoma cell line stably expressing the human Nav1.8 (hNav1.8) ion channel was constructed. This cell line has been used to develop a medium to high throughput assay for determining the ability of test compounds to inhibit membrane depolarisation mediated via the hNav1.8 channel.
SH-SY-5Y hNav1.8 are grown in adherent monolayer culture using 50:50 Ham's F-12/EMEM tissue culture medium supplemented with 15% (v/v) foetal bovine serum; 2 mM L-glutamine, 1% NEAR and 600 μg·ml^−1 Geneticin sulphate. Cells are removed from the tissue culture flask using trypsin/EDTA and re-plated into black walled, clear bottom 96-well assay plates at 50,000 cells·well^−1 24 hours prior to assay.
On the day of assay the cell assay plates are washed to remove cell culture medium using a sodium free assay buffer (145 mM tetramethyl ammonium chloride; 2 mM calcium chloride; 0.8 mM magnesium chloride hexahydrate; 10 mM HEPES; 10 mM glucose; 5 mM potassium chloride, pH 7.4). Fluorescent membrane potential dye solution (FLIPR™ membrane potential dye, Molecular Devices Corporation), containing 10 μM of a pyrethroid to prevent channel inactivation and 250 nM tetrodotoxin (TTX) to reduce interference from TTX-sensitive sodium channels present in the cell line. Test compound, initially dissolved in dimethyl sulfoxide but further diluted in sodium free buffer, is added to achieve the final test concentration range of 100 μM-0.05 μM.
Cell plates are incubated for 30 minutes at room temperature to allow equilibration of dye and test compound. Plates are then transferred to a fluorescence plate reader for fluorescence measurement using an excitation wavelength of 530 nm whilst measuring fluorescence emission at 565 nm. Baseline fluorescence levels are first determined before the addition of a sodium containing buffer (220 mM sodium chloride; 2 mM calcium chloride; 0.8 mM magnesium chloride hexahydrate; 10 mM HEPES; 10 mM glucose; 5 mM potassium chloride. pH 7.4) to cause membrane depolarisation in those cells where channel block has not been effected (final sodium concentration=72.5 mM). Membrane depolarisation is registered by an increase in fluorescence emission at 565 nm.
The change in fluorescence seen in each test well upon the addition of sodium containing buffer is calculated relative to the baseline fluorescence for that well. This figure is then used for calculating the IC50 for each test compound.
For orientation: IC50 means the midpoint of a concentration-inhibition curve. For `Cc1ccccc1CC(C)N1CC2CC1CN2C(=O)Nc1cccc(C(F)(F)F)c1` (stereo not drawn) [Example 67, 5-(1-Methyl-2-o-tolyl-ethyl)-2,5-diaza-bicyclo[2.2.1]heptane-2-carboxylic acid (3-trifluoromethyl-phenyl)-amide], the IC50 worked out at 1220 nM.

Take `CC(c1ccccc1Cl)N1CC2CC1CN2C(=O)c1ccc(Oc2ccc(F)cc2)c(F)c1` (stereo not drawn) [Example 178, {5-[1-(2-Chloro-phenyl)-ethyl]-2,5-diaza-bicyclo[2.2.1]hept-2-yl}-[3-fluoro-4-(4-fluoro-phenoxy)-phenyl]-methanone methanesulfonate salt]: the half-inhibitory concentration (IC50) stood at 610 nM. `CC(c1ccc(Cl)cc1Cl)N1CC2CC1CN2C(=O)Nc1ccc(Oc2ccc(F)cc2)cc1` (stereo not drawn) [Example 118, 5-[1-(2,4-Dichloro-phenyl)-ethyl]-2,5-diaza-bicyclo[2.2.1]heptane-2-carboxylic acid [4-(4-fluoro-phenoxy)-phenyl]-amide]: the IC50 amounted to 17600 nM. On to `Cc1ccccc1C(C)N1CC2CC1CN2C(=O)Nc1cccc(Oc2ccccc2)c1` (stereo not drawn) [Example 8, 5-(1-o-Tolyl-ethyl)-2,5-diaza-bicyclo[2.2.1]heptane-2-carboxylic acid (3-phenoxy-phenyl)-amide], for which the IC50 came to 680 nM. Consider `CC(c1ccccc1C(F)(F)F)N1CC2CC1CN2C(=O)Nc1ccc(C(F)(F)F)cc1` (single isomer, unassigned) [Example 56, 5-[1-(2-Trifluoromethyl-phenyl)-ethyl]-2,5-diaza-bicyclo[2.2.1]heptane-2-carboxylic acid (4-trifluoromethyl-phenyl)-amide], for which the half-maximal inhibitory concentration (IC50) was 7910 nM. `Cc1ccccc1CC(C)N1CC2CC1CN2C(=O)Nc1ccc(C(F)(F)F)cc1` (stereo not drawn) [Example 59, 5-(1-Methyl-2-o-tolyl-ethyl)-2,5-diaza-bicyclo[2.2.1]heptane-2-carboxylic acid (4-trifluoromethyl-phenyl)-amide]: the IC50 turned out to be 750 nM. Same read-out and setting: in the case of `O=C(Nc1ccc(Oc2ccccc2)cc1)N1CC2CC1CN2C1Cc2ccc(F)cc2C1` (stereo not drawn) [Example 125, 5-(5-Fluoro-indan-2-yl)-2,5-diaza-bicyclo[2.2.1]heptane-2-carboxylic acid (4-phenoxy-phenyl)-amide] it was 780 nM; in that of `CC(c1ccccc1Cl)N1CC2CC1CN2C(=O)Nc1ccc(Oc2ccc(F)cc2)cc1` (single isomer, unassigned) [Example 73, 5-[1-(2-Chloro-phenyl)-ethyl]-2,5-diaza-bicyclo[2.2.1]heptane-2-carboxylic acid [4-(4-fluoro-phenoxy)-phenyl]-amide], 1130 nM; in that of `Cc1cc(F)ccc1C(C)N1CC2CC1CN2C(=O)Nc1ccc(C(=O)c2ccccc2)cc1` (stereo not drawn) [Example 72, 5-[1-(4-Fluoro-2-methyl-phenyl)-ethyl]-2,5-diaza-bicyclo[2.2.1]heptane-2-carboxylic acid (4-benzoyl-phenyl)-amide], 2260 nM. `Cc1ccccc1C(C)N1CC2CC1CN2C(=O)Nc1ccc(OCCc2ccccn2)cc1` (stereo not drawn) [Example 45, 5-(1-o-Tolyl-ethyl)-2,5-diaza-bicyclo[2.2.1]heptane-2-carboxylic acid [4-(2-pyridin-2-yl-ethoxy)-phenyl]-amide]: the IC50 stood at 3270 nM. Regarding `Cc1ccccc1C(C)N1CC2CC1CN2C(=O)Nc1ccc(Cc2ccccc2)cc1` (stereo not drawn) [Example 34, 5-(1-o-Tolyl-ethyl)-2,5-diaza-bicyclo[2.2.1]heptane-2-carboxylic acid (4-benzyl-phenyl)-amide], the IC50 was found to be 640 nM. Same read-out and setting: as for `Cc1ccccc1CC(C)N1CC2CC1CN2C(=O)NC(C)c1ccc(F)cc1` (stereo not drawn) [Example 70, 5-(1-Methyl-2-o-tolyl-ethyl)-2,5-diaza-bicyclo[2.2.1]heptane-2-carboxylic acid [1-(4-fluoro-phenyl)-ethyl]-amide], the figure is 5080 nM; as for `O=C(Nc1ccc(Oc2ccc(F)cc2)cc1)N1CC2CN(Cc3ccccc3)CC2C1` (stereo not drawn) [Example 98, 5-Benzyl-hexahydro-pyrrolo[3,4-c]pyrrole-2-carboxylic acid [4-(4-fluoro-phenoxy)-phenyl]-amide], 170 nM; as for `O=C(Nc1ccc(C(F)(F)F)cc1)N1CC2CC1CN2C1CCc2cc(F)ccc21` (stereo not drawn) [Example 95, 5-(5-Fluoro-indan-1-yl)-2,5-diaza-bicyclo[2.2.1]heptane-2-carboxylic acid (4-trifluoromethyl-phenyl)-amide], 1060 nM. The same measure, in the same setting: in the case of `Cc1ccccc1C(C)N1CC2CC1CN2C(=O)Nc1ccc(OCCN2CCCC2=O)cc1` (stereo not drawn) [Example 23, 5-(1-o-Tolyl-ethyl)-2,5-diaza-bicyclo[2.2.1]heptane-2-carboxylic acid {4-[2-(2-oxo-pyrrolidin-1-yl)-ethoxy]-phenyl}-amide] it was at least 30000 nM.

Take `CC(c1ccc(F)cc1Cl)N1CC2CC1CN2C(=O)c1ccc(Oc2ccc(F)cc2)cc1` (stereo not drawn) [Example 164, {5-[1-(2-Chloro-4-fluoro-phenyl)-ethyl]-2,5-diaza-bicyclo[2.2.1]hept-2-yl}-[4-(4-fluoro-phenoxy)-phenyl]-methanone]: the IC50 came out at 13500 nM.

Consider `O=C(Nc1ccc(C(F)(F)F)cc1)N1CC2CC1CN2C1CCc2cc(F)ccc21` (stereo not drawn) [Example 94, 5-(5-Fluoro-indan-1-yl)-2,5-diaza-bicyclo[2.2.1]heptane-2-carboxylic acid (4-trifluoromethyl-phenyl)-amide], for which the IC50 stood at 1890 nM. On the same count and under the same terms, in the case of `CC(c1ccccc1Cl)N1CC2CC1CN2C(=O)Nc1ccc(Oc2ccc(F)cc2)c(F)c1` (stereo not drawn) [Example 110, 5-[1-(2-Chloro-phenyl)-ethyl]-2,5-diaza-bicyclo[2.2.1]heptane-2-carboxylic acid [3-fluoro-4-(4-fluoro-phenoxy)-phenyl]-amide] it was 210 nM; in that of `Cc1ccc(Oc2ccc(NC(=O)N3CC4CC3CN4C(C)c3ccc(Cl)cc3Cl)cc2)cc1` (stereo not drawn) [Example 123, 5-[1-(2,4-Dichloro-phenyl)-ethyl]-2,5-diaza-bicyclo[2.2.1]heptane-2-carboxylic acid (4-p-tolyloxy-phenyl)-amide], 20800 nM. Still for that read-out and setting: in the case of `Cc1ccccc1C(C)N1CC2CC1CN2C(=O)Nc1ccc(-c2ccccc2)cc1` (stereo not drawn) [Example 38, 5-(1-o-Tolyl-ethyl)-2,5-diaza-bicyclo[2.2.1]heptane-2-carboxylic acid biphenyl-4-ylamide] it was 1440 nM. As to `Cc1ccccc1C(C)N1CC2CC1CN2C(=O)Nc1ccc(C(O)c2ccccc2)cc1` (stereo not drawn) [Example 68, 5-(1-o-Tolyl-ethyl)-2,5-diaza-bicyclo[2.2.1]heptane-2-carboxylic acid [4-(hydroxy-phenyl-methyl)-phenyl]-amide], the IC50 amounted to 6150 nM.

Staying with this assay, now noted: hNav1.8 IC50, SH-SY-5Y hNav1.8 cells; FLIPR membrane potential dye; 10 μM pyrethroid, 250 nM TTX; test concentration range 100 μM-0.05 μM.
`O=C(Cc1ccc(Oc2ccc(F)cc2)cc1)N1CC2CC1CN2C1CCc2ccccc2C1` (stereo not drawn) [Example 142, 2-[4-(4-Fluoro-phenoxy)-phenyl]-1-[5-(1,2,3,4-tetrahydro-naphthalen-2-yl)-2,5-diaza-bicyclo[2.2.1]hept-2-yl]-ethanone] showed an IC50 of 280 nM. The same measure, in the same setting: in the case of `CC(c1c(F)cccc1Cl)N1CC2CC1CN2C(=O)Cc1ccc(Oc2ccc(F)cc2)cc1` (single isomer, unassigned) [Example 165, 1-{5-[1-(2-Chloro-6-fluoro-phenyl)-ethyl]-2,5-diaza-bicyclo[2.2.1]hept-2-yl}-2-[4-(4-fluoro-phenoxy)-phenyl]-ethanone] it was 1230 nM. Same read-out and setting: as for `CC(c1ccccc1Br)N1CC2CC1CN2C(=O)Cc1ccc(Oc2ccc(F)cc2)cc1` (stereo not drawn) [Example 154, 1-{5-[1-(2-Bromo-phenyl)-ethyl]-2,5-diaza-bicyclo[2.2.1]hept-2-yl}-2-[4-(4-fluoro-phenoxy)-phenyl]-ethanone], the figure is 4310 nM; as for `CC(c1ccccc1Cl)N1CC2CC1CN2C(=O)Cc1ccc(Oc2ccc(F)cc2)cc1` (stereo not drawn) [Example 135, 1-{5-[1-(2-Chloro-phenyl)-ethyl]-2,5-diaza-bicyclo[2.2.1]hept-2-yl}-2-[4-(4-fluoro-phenoxy)-phenyl]-ethanone], 940 nM. On the same count and under the same terms, in the case of `CC(c1ccccc1Cl)N1CC2CC1CN2C(=O)Cc1ccc(Oc2cccc(F)c2)cc1` (stereo not drawn) [Example 170, 1-{5-[1-(2-Chloro-phenyl)-ethyl]-2,5-diaza-bicyclo[2.2.1]hept-2-yl}-2-[4-(3-fluoro-phenoxy)-phenyl]-ethanone] it was 1570 nM; in that of `CC(c1ccc(F)cc1Cl)N1CC2CC1CN2C(=O)Cc1ccc(Oc2ccc(F)cc2)cc1` (single isomer, unassigned) [Example 161, 1-{5-[1-(2-Chloro-4-fluoro-phenyl)-ethyl]-2,5-diaza-bicyclo[2.2.1]hept-2-yl}-2-[4-(4-fluoro-phenoxy)-phenyl]-ethanone], 4750 nM.
